Measurements taken from patent US6114572A, “Substituted phenols and thiophenols useful as antioxidant agents” (priority 1997, dated 2000).
Like-named read-outs stand apart in the source and are kept apart here.

Key:
[1] = tested on: Male Sprague-Dawley Rats; assay: Serum clinical chemistries in male Sprague-Dawley rats; format: in vivo
Description: Measurement of Antioxidant Activity and Bioavailability of Compounds of Formula (1) By In Vivo Screening in Male Sprague-Dawley Rats
(§1) A typical experiment consists of 4-6 groups of rats (N=5 per group) with 1 group being a control which receives no MDL compound and the other groups being treated with 0.3% MDL compound. […] Mix the MDL compound with approximately 50 grams of food using a mortar and pestle. This is added to the remainder of the food and mixed for 3 hours on a rotary mixer. In the morning of day 5, anesthetize non-fasted rats with carbon dioxide, and collect blood by cardiac puncture. Sacrifice rats by cervical dislocation. Record body weights and liver weights in grams. Record food consumption as grams·day^-1 ·rat^-1. Deaths are recorded as mortality. Use aliquots of fresh serum for clinical chemistries, thiobarbituric acid reactive substances (TBARS) and conjugated diene measurements. Freeze aliquots of serum (~0.5 mL) and whole livers at -20° C. for compound and metabolite concentration determination at a later time.
Allow blood to clot at room temperature for 30 minutes. Obtain serum after centrifugation for 10 min at 4° C. at 3000 rpm in a Beckman J-6M/E centrifuge with a JS-4.2 rotor. […] Calculate ALP, ALT, and AST as units/L. Calculate cholesterol, triglycerides, and glucose as mg/dL.

[2] = tested on: oxidation of serum lipids; assay: TBARS assay (oxidation of serum lipids) in male Sprague-Dawley rats; format: in vivo; settings: feed or water, 96 h, rat serum, 4 days, N = 5, CuSO4-initiated, 3 hr, read-out: TBARS, percent of control
Description: as §1
In this assay the oxidation of serum lipids is initiated with CuSO4, resulting in the formation of aldehydes, such as malondialdehyde (MDA). Upon incubation with thiobarbituric acid, the absorbance of the aldehydes can be detected at 530-540 nm. […] Measure TBARS as follows: mix 100 μL of serum with 400 μL of a 5 mmol CuSO4 solution and incubate at 37° C. for 3 hr. Stop the reactions by addition of 1.0 mL of 20% trichloroacetic acid. […] Centrifuge samples briefly to pellet undissolved material, and transfer the supernatants to a 96-well microtiter plate. Measure absorbances at 540 nm using a Biotek model EL311 microplate reader. The nmoles of MDA produced are calculated from a standard curve of 0 to 10 nmoles of MDA prepared from malonaldehyde bis(dimethylacetal). Serum samples from treated rats are compared to serum samples from control rats that received no MDL compound.

[3] = Animal parameters (food, body weight, liver weight, mortality) in male Sprague-Dawley rats; format: in vivo; settings: for mortality at 96 h: po, read-out: mortality (deaths per group); for mortality at 96 h / body wt., percent of control / lw/bw (liver weight/body weight), percent of control: rat
Excerpt: (§2) A typical experiment consists of 4-6 groups of rats (N=5 per group) with 1 group being a control which receives no MDL compound and the other groups being treated with 0.3% MDL compound. Some of the compounds are either repeated at 0.3% or evaluated again at the lower dose of 0.1%. House Male Sprague-Dawley rats, 50-100 g, (Harlan Laboratories, Indianapolis, Ind.) in groups of 5, feeding ad libitum water and Purina Rodent chow (#5002) with or without MDL compound as a dietary admixture for 4 days. Make dietary admixtures (0.3%) by mixing 1.2 grams of an MDL compound with 400 grams of Purina rodent chow (#5002). Mix the MDL compound with approximately 50 grams of food using a mortar and pestle. This is added to the remainder of the food and mixed for 3 hours on a rotary mixer. In the morning of day 5, anesthetize non-fasted rats with carbon dioxide, and collect blood by cardiac puncture. Sacrifice rats by cervical dislocation. Record body weights and liver weights in grams. Record food consumption as grams·day^-1 ·rat^-1. Deaths are recorded as mortality. Use aliquots of fresh serum for clinical chemistries, thiobarbituric acid reactive substances (TBARS) and conjugated diene measurements. Freeze aliquots of serum (~0.5 mL) and whole livers at -20° C. for compound and metabolite concentration determination at a later time.

[4] = HPLC quantitation of compound and metabolite concentration in rat serum and liver; settings: in vivo; for concentration at 96 h: po, 0.3% in diet, 4 days
Excerpt: as §2
Determine serum and liver concentrations of parent compound and the metabolites, bisphenol and diphenoquinone, by reverse phase HPLC using a Waters 990 Powerline system. Homegenize livers (1 gram samples) with 5.0 mL PBS, pH 7.4, using a Polytron tissue homogenizer at setting 5 for 20-30 seconds. Extract serum or liver homogenates as follows: add 100 μL of either serum or homogenate to 2.0 mL diethyl ether:ethanol (3:1) while vortexing the tube. Cap the sample tubes and centrifuge for 10 min at 5° C. at 3500 rpm in a Beckman GPKR centrifuge with a GH 3.7 rotor. Transfer the supernatants to clean tubes and dry under N2. Reconstitute samples with 200 μL of acetonitrile:hexane:0.1 M ammonium acetate (90:6.5:3.5, by vol.). Then, inject 100 μL onto a Waters Deltapak C18-300 Å column, and elute with an 83% acetonitrile:17% water mobile phase at a flow rate of 1.5 mL/min. Record absorbances at the wavelengths of 240, 254, and 420nm. Calculate compound concentrations from known quantities of authentic parent compounds after correction for recovery. […]. Calculate concentrations as μg/mL of serum and μg/g of liver.

[5] = tested on: VCAM-1; settings: vascular endothelial cells; Mauri, N. et al.; cited from earlier work
[6] = tested on: ICAM-1; settings: vascular endothelial cells; Mauri, N. et al.; cited from earlier work
[7] = rat serum, 0.3% in diet, 4 days, N = 5
[8] = in vivo, 0.3% in diet, 4 days, N = 5
[9] = mean N = 5, read-out: Serum Parent (parent compound concentration)
[10] = mean N = 5, read-out: Liver Parent (parent compound concentration)

| Compound | ALP (alkaline phosphatase), percent of control [1, 7] | ALT (alanine aminotransferase), percent of control [1, 7] | AST (aspartate aminotransferase), percent of control [1, 7] | GLUC (glucose), percent of control ([1]; rat, in vivo) | response vs control in vivo at 0.3 % in diet [2] | food (grams eaten per day per rat), percent of control ([3]; in vivo) | mortality at 96 h [3, 8] | body wt., percent of control ([3]; in vivo) | Liver Bis (bisphenol concentration) ([4]; 5760 min) | Liver Parent (parent compound concentration) ([4]; 5760 min) | Liver Quin (diphenoquinone concentration) ([4]; 5760 min) | Serum Bis (bisphenol concentration) ([4]; 5760 min) | Serum Quin (diphenoquinone concentration) ([4]; 5760 min) | concentration at 96 h [4, 9] | food (grams eaten per day per rat), percent of control ([3]; 0.3% in diet, 4 days, N = 5) | body wt., percent of control ([3]; 0.3% in diet, 4 days, N = 5) | concentration at 96 h [4, 10] | other results |
| --- | --- | --- | --- | --- | --- | --- | --- | --- | --- | --- | --- | --- | --- | --- | --- | --- | --- | --- |
| CC(C)=CCC[C@H](C)CCOc1ccc(O)c(C(C)(C)C)c1 [103,649] | 74% | 119% | 82% | 101% | 29% | 95% | 0% | 94% | 0 | 0 | 0 | 0 | 0 | 1400 ng/mL | – | – | – | response vs control in vivo at 0.3 % in diet ([1]; Rattus norvegicus, feed or water, 96 h, read-out: TRIG (triglycerides), percent of control): 143% |
| CC(C)=CCC[C@H](C)CCSc1ccc(O)c(C(C)(C)C)c1 [103,714] | 111% | 120% | 104% | 95% | 21% | – | 0% | – | 0 | 0 | 0 | 0 | 0 | 2700 ng/mL | 102% | 103% | – | – |
| CC(C)=CCCC(C)CCSc1cc(C(C)(C)C)c(O)c(C(C)(C)C)c1 (stereo not drawn) [103,960] | 125% | 117% | – | 110% | 24% | 105% | 0% | – | – | – | 0 | 0 | 0 | 8700 ng/mL | – | 100% | 47300 ng/g | AST (aspartate aminotransferase), percent of control ([1]; rat, in vivo): 102%; lw/bw (liver weight/body weight), percent of control ([3]; 0.3% in diet, 4 days, N = 5): 130% |
| CC(C)CCCC(C)CCOc1cc(C(C)(C)C)c(O)c(C(C)(C)C)c1 (stereo not drawn) [104,102] | – | 114% | 82% | 98% | 71% | – | 0% | – | 0 | – | 0 | 0 | 0 | 32800 ng/mL | 92% | 97% | 481000 ng/g | ALP (alkaline phosphatase), percent of control ([1]; rat, in vivo): 101% |
| CC(C)CCCC(C)CCOc1ccc(O)c(C(C)(C)C)c1 (stereo not drawn) [104,191] | 81% | 149% | 146% | 106% | 20% | 76% | 0% | 92% | 0 | – | 0 | 0 | 0 | 6900 ng/mL | – | – | 16100 ng/g | – |
| CC(CCCC(C)(C)O)CCSc1cc(C(C)(C)C)c(O)c(C(C)(C)C)c1 (stereo not drawn) [104,487] | 137% | 129% | 124% | – | 87% | – | 0% | – | – | – | 0 | 0 | 0 | 4100 ng/mL | 90% | 95% | 3800 ng/g | GLUC (glucose), percent of control [1, 7]: 92% |
| CC(C)=CCC[C@@H](C)CCOc1cc(C(C)(C)C)c(O)c(C(C)(C)C)c1 [104,535] | 151% | 108% | – | – | 11% | 95% | 0% | 102% | 0 | – | 0 | 0 | 0 | 16300 ng/mL | – | – | 60300 ng/g | GLUC (glucose), percent of control [1, 7]: 112%; AST (aspartate aminotransferase), percent of control ([1]; rat, in vivo): 94% |
| CC(C)=CCC[C@H](C)CCOc1cc(C(C)(C)C)c(O)cc1C(C)(C)C [107,059] | – | – | 140% | 96% | 78% | 95% | 0% | – | 0 | 0 | 0 | 0 | 0 | – | – | 95% | – | ALP (alkaline phosphatase), percent of control ([1]; rat, in vivo): 118%; ALT (alanine aminotransferase), percent of control ([1]; rat, in vivo): 116%; lw/bw (liver weight/body weight), percent of control ([3]; 0.3% in diet, 4 days, N = 5): 107%; Serum Parent (parent compound concentration) ([4]; 5760 min): 0 |
| CC(=O)N[C@@H](CS)C(=O)O [N-acetylcysteine] | – | – | – | – | – | – | – | – | – | – | – | – | – | – | – | – | – | inhibition of cytokine-induced expression of VCAM-1 [5]: inhibit cytokine-induced expression of VCAM-1; inhibition of cytokine-induced expression of ICAM-1 [6]: not ICAM-1 |
| S=C(S)N1CCCC1 [pyrollidine dithiocarbamate] | – | – | – | – | – | – | – | – | – | – | – | – | – | – | – | – | – | inhibition of cytokine-induced expression of VCAM-1 [5]: inhibit cytokine-induced expression of VCAM-1; inhibition of cytokine-induced expression of ICAM-1 [6]: not ICAM-1 |
